Data from patent publication US20230321251A1, “LIPOSOME FORMULATION CONTAINING ANTIBACTERIAL AGENT” (priority 2020, published 2023).
Converted amounts (≈) assume the structure as drawn. “And” between values parts separate entries of the source, which are not always exact repeats. Equal values may be shown once.

Columns and labels:
[1] = Tissue distribution test (plasma, liver, kidney, lung); conditions: ICR mice; for Kidney Concentration / Liver Concentration / Lung Concentration / Plasma Concentration / Kidney Kp / Liver Kp / Lung Kp: iv 5 mg/kg; for concentration at 0.5 h / concentration at 2 h / concentration at 24 h / Kp at 0.5 h / Kp at 2 h / Kp at 24 h: ICR, mouse, in vivo, iv, 5 mg/kg
Method: (3) Tissue Distribution of Active Ingredient after Administration of Liposome Formulation
(Tissue Distribution Test)
The compound of the present invention was intravenously administered at a dose of 5 mg/kg to ICR mice. […] Then, the liver, kidney, and lung were removed, and a 25% homogenate was prepared with distilled water. The obtained blood was centrifuged, and plasma was then obtained. Thereafter, each sample was measured using LC/MS/MS. The concentration value ratio (each tissue/plasma) obtained was used as a tissue Kp value.

S. aureus VRS1 = assay: In vitro antibacterial activity (MIC), agar plate dilution; format: cell-based, Staphylococcus aureus; conditions: for minimum inhibitory concentration (MIC): S. aureus VRS1, 1000 cfu/spot
Method: (§1) A minimum inhibitory concentration was measured as in vitro antibacterial activity. The minimum inhibitory concentration (MIC: μg/ml) was measured according to the standard method of Japanese Society of Chemotherapy, by an agar plate dilution method using 1000 cfu/spot as an inoculum amount and a susceptibility disk medium as a test medium.
(§2) In the tables, a unit of a numerical value of inhibitory activity is μg/ml. In addition, in the tables, S. aureus represents Staphylococcus aureus and E. faecalis represents Gram-positive group D streptococci (enterococci) that are resident in a normal bacterial flora of a human intestinal tract, and can be causative bacteria of endocarditis and the like after surgery.

S. aureus ATCC700787 = assay: as above; format: cell-based, Staphylococcus aureus
Method: as §1, §2

[2] = Plasma concentration of active ingredient after intravenous administration (PK parameters)
Method: (2) Plasma Concentration of Active Ingredient after Administration of Liposome Formulation
1) Animals used: ICR mice were used.
2) Breeding conditions: The mice were allowed to freely take chow and sterilized tap water.
3) Dose and grouping setting: A predetermined dose was intravenously administered. The intravenous dose was 5 mg/kg (n=3).
4) Formulation of dosing solution: The dosing solution was administered as a 5% glucose solution.
5) Administration method: Administration was performed via the tail vein through a syringe with an injection needle.
6) Evaluation item: Blood was collected over time, and the plasma concentration of the compound of the present invention was measured using LC/MS/MS.
7) Parameter analysis: For the plasma concentration of the compound of the present invention, area under the plasma concentration-time curve (AUC), systemic clearance (CLtot), elimination half-life (t½), and steady state distribution volume (Vdss) of the compound of the present invention were calculated by non-compartmental model analysis.

E. faecalis SR1004 = assay: In vitro antibacterial activity (MIC), agar plate dilution; format: cell-based; conditions: for minimum inhibitory concentration (MIC): E. faecalis SR1004, 1000 cfu/spot
Method: as §1, §2

E. faecalis SR7914 = assay: as above; format: cell-based; conditions: for minimum inhibitory concentration (MIC): E. faecalis SR7914, 1000 cfu/spot
Method: as §1, §2

E. faecium SR7940 = assay: as above; format: cell-based; conditions: for minimum inhibitory concentration (MIC): E. faecium SR7940, 1000 cfu/spot
Method: as §1, §2

E. faecium SRM1101 = assay: as above; format: cell-based
Method: as §1, §2

S. aureus ATCC25923 = assay: as above; format: cell-based, Staphylococcus aureus
Method: as §1, §2

[3] = ICR mice, intravenous 5 mg/kg, plasma
[4] = ICR, mouse, in vivo, iv, 5 mg/kg

CN[C@H](CC(C)C)C(=O)N[C@H]1C(=O)N[C@@H](CC(N)=O)C(=O)N[C@H]2C(=O)N[C@H]3C(=O)N[C@H](C(=O)N[C@H](C(=O)O)c4cc(O)cc(O)c4-c4cc3ccc4O)[C@H](O[C@H]3C[C@](C)(N)[C@@H](O)[C@H](C)O3)c3ccc(c(Cl)c3)Oc3cc2cc(c3O[C@@H]2O[C@H](CO)[C@@H](O)[C@H](O)[C@H]2O[C@H]2C[C@](C)(NCc3ccc(-c4ccc(Cl)cc4)cc3)[C@@H](O)[C@H](C)O2)Oc2ccc(cc2Cl)[C@H]1O [Oritavancin drug substance, oritavancin]
Kidney Concentration ([1]; 0.5 hour after administration): 10300 ± 1090 ng/mL
Liver Concentration ([1]; 0.5 hour after administration): 14800 ± 1230 ng/mL
Lung Concentration ([1]; 0.5 hour after administration): 15100 ± 563 ng/mL
Plasma Concentration ([1]; 0.5 hour after administration): 34400 ± 4550 ng/mL
Kidney Concentration ([1]; 2 hours after administration): 8720 ± 538 ng/mL
Liver Concentration ([1]; 2 hours after administration): 24900 ± 1400 ng/mL
Lung Concentration ([1]; 2 hours after administration): 10100 ± 1010 ng/mL
Plasma Concentration ([1]; 2 hours after administration): 14900 ± 1710 ng/mL
Kidney Concentration ([1]; 24 hours after administration): 4090 ± 462 ng/mL
Liver Concentration ([1]; 24 hours after administration): 38500 ± 2780 ng/mL
Lung Concentration ([1]; 24 hours after administration): 3790 ± 388 ng/mL
Plasma Concentration ([1]; 24 hours after administration): 63.9 ± 12.0 ng/mL
Kidney Kp ([1]; kidney/plasma concentration ratio, 0.5 hour): 0.30 ± 0.04
Kidney Kp ([1]; kidney/plasma concentration ratio, 2 hours): 0.59 ± 0.05
Kidney Kp ([1]; kidney/plasma concentration ratio, 24 hours): 66.12 ± 17.05
Liver Kp ([1]; liver/plasma concentration ratio, 0.5 hour): 0.44 ± 0.08
Liver Kp ([1]; liver/plasma concentration ratio, 2 hours): 1.68 ± 0.10
Liver Kp ([1]; liver/plasma concentration ratio, 24 hours): 611.35 ± 72.9
Lung Kp ([1]; lung/plasma concentration ratio, 0.5 hour): 0.44 ± 0.07
Lung Kp ([1]; lung/plasma concentration ratio, 2 hours): 0.68 ± 0.09
Lung Kp ([1]; lung/plasma concentration ratio, 24 hours): 61.19 ± 15.12
minimum inhibitory concentration (MIC) (S. aureus VRS1): 4 µg/mL and 2 µg/mL
minimum inhibitory concentration (MIC) (S. aureus ATCC700787; S. aureus ATCC700787, 1000 cfu/spot): 4 µg/mL and 2 µg/mL
CL tot [2, 3]: 0.989 ± 0.049 mL/min/kg
T1/2 [2, 3]: 2.2 ± 1.3 h
minimum inhibitory concentration (MIC) (E. faecalis SR1004): 2 µg/mL and 1 µg/mL
minimum inhibitory concentration (MIC) (E. faecalis SR7914): 2 µg/mL and 1 µg/mL
minimum inhibitory concentration (MIC) (E. faecium SR7940): 2 µg/mL (≈ 1.12 µM)
minimum inhibitory concentration (MIC) (E. faecium SRM1101; E. faecium SRM1101, 1000 cfu/spot): 2 µg/mL and 4 µg/mL

CCCCCCCCCCNCCN[C@@]1(C)C[C@H](O[C@H]2[C@H](Oc3c4cc5cc3Oc3ccc(cc3Cl)[C@@H](O)[C@@H]3NC(=O)[C@H](NC(=O)[C@@H]5NC(=O)[C@H](CC(N)=O)NC(=O)C(NC(=O)[C@@H](CC(C)C)NC)[C@H](O)c5ccc(c(Cl)c5)O4)c4ccc(O)c(c4)-c4c(cc(O)c(CNCP(=O)(O)O)c4O)[C@@H](C(=O)O)NC3=O)O[C@H](CO)[C@@H](O)[C@@H]2O)O[C@@H](C)[C@H]1O (some centres unmarked) [Telavancin drug substance, telavancin]
concentration at 0.5 h ([1]; Kidney Concentration, 0.5 hour after administration): 19000 ± 4110 ng/mL
concentration at 2 h ([1]; Kidney Concentration, 2 hours after administration): 12700 ± 2470 ng/mL
concentration at 24 h ([1]; Kidney Concentration, 24 hours after administration): 5930 ± 1600 ng/mL
Kp at 0.5 h ([1]; Kidney Kp, kidney/plasma concentration ratio, 0.5 hour): 1.05 ± 0.23
Kp at 2 h ([1]; Kidney Kp, kidney/plasma concentration ratio, 2 hours): 1.64 ± 0.12
Kp at 24 h ([1]; Kidney Kp, kidney/plasma concentration ratio, 24 hours): 49.9
concentration at 0.5 h ([1]; Liver Concentration, 0.5 hour after administration): 3780 ± 201 ng/mL
concentration at 2 h ([1]; Liver Concentration, 2 hours after administration): 4050 ± 256 ng/mL
concentration at 24 h ([1]; Liver Concentration, 24 hours after administration): 2340 ± 465 ng/mL
Kp at 0.5 h ([1]; Liver Kp, liver/plasma concentration ratio, 0.5 hour): 0.21 ± 0.01
Kp at 2 h ([1]; Liver Kp, liver/plasma concentration ratio, 2 hours): 0.53 ± 0.05
Kp at 24 h ([1]; Liver Kp, liver/plasma concentration ratio, 24 hours): 17.2
concentration at 0.5 h ([1]; Lung Concentration, 0.5 hour after administration): 5860 ± 208 ng/mL
concentration at 2 h ([1]; Lung Concentration, 2 hours after administration): 2820 ± 162 ng/mL
concentration at 24 h ([1]; Lung Concentration, 24 hours after administration): 736 ± 158 ng/mL
Kp at 0.5 h ([1]; Lung Kp, lung/plasma concentration ratio, 0.5 hour): 0.32 ± 0.03
Kp at 2 h ([1]; Lung Kp, lung/plasma concentration ratio, 2 hours): 0.37 ± 0.04
Kp at 24 h ([1]; Lung Kp, lung/plasma concentration ratio, 24 hours): 5.75
concentration at 0.5 h ([1]; Plasma Concentration, 0.5 hour after administration): 18200 ± 627 ng/mL
concentration at 2 h ([1]; Plasma Concentration, 2 hours after administration): 7700 ± 977 ng/mL
concentration at 24 h ([1]; Plasma Concentration, 24 hours after administration): 51.9 ± 89.9 ng/mL
minimum inhibitory concentration (MIC) (S. aureus VRS1): 2 µg/mL (≈ 1.14 µM)
MIC (S. aureus VRS1; Staphylococcus aureus, VRS1, read-out: minimum inhibitory concentration (MIC), S. aureus VRS1, 1000 cfu/spot): 4 µg/mL (≈ 2.28 µM)
minimum inhibitory concentration (MIC) (S. aureus ATCC25923; S. aureus ATCC25923, 1000 cfu/spot): 0.25 µg/mL (≈ 0.142 µM)
MIC (S. aureus ATCC25923; Staphylococcus aureus, ATCC25923, read-out: minimum inhibitory concentration (MIC), S. aureus ATCC25923, 1000 cfu/spot): 0.5 µg/mL (≈ 0.285 µM)
MIC (S. aureus ATCC700787; Staphylococcus aureus, ATCC700787, read-out: minimum inhibitory concentration (MIC)): 1 µg/mL (≈ 0.57 µM)
AUC(0-inf) [2, 4]: 57200 ± 12800 ng·h/mL
clearance [2, 4]: 1.52 ± 0.32 mL/min/kg
half-life [2, 4]: 162 ± 162 min
minimum inhibitory concentration (MIC) (E. faecalis SR1004): 0.5 µg/mL (≈ 0.285 µM)
MIC (E. faecalis SR1004; Enterococcus faecalis, SR1004, read-out: minimum inhibitory concentration (MIC), E. faecalis SR1004, 1000 cfu/spot): 1 µg/mL (≈ 0.57 µM)
minimum inhibitory concentration (MIC) (E. faecalis SR7914): 2 µg/mL (≈ 1.14 µM)
MIC (E. faecalis SR7914; Enterococcus faecalis, SR7914, read-out: minimum inhibitory concentration (MIC), E. faecalis SR7914, 1000 cfu/spot): 4 µg/mL (≈ 2.28 µM)
minimum inhibitory concentration (MIC) (E. faecium SR7940): 2 µg/mL (≈ 1.14 µM)
MIC (E. faecium SR7940; Enterococcus faecium, SR7940, read-out: minimum inhibitory concentration (MIC), E. faecium SR7940, 1000 cfu/spot): 4 µg/mL (≈ 2.28 µM)
MIC (E. faecium SRM1101; Enterococcus faecium, SRM1101, read-out: minimum inhibitory concentration (MIC)): 4 µg/mL (≈ 2.28 µM)
